US9283277B2, “Methods and compositions for the treatment of obesity” (Children's Medical Center Corporation, priority 2008, dated 2016)

What was measured:
Format in all cases: in vivo
HFD-fed obese mice = assay: PBA alone in HFD-fed or ND-fed mice: bodyweight, hypothalamic PERK and leptin-stimulated Stat3 phosphorylation
Method: C57BL/6 mice that were kept on high fat diet feeding for 25 weeks were either treated with vehicle or PBA (1 g/kg/day) for 10 days. Following the pretreatment period mice were given daily leptin (5 mg/kg/day, IP) treatment. (a) Bodyweight (g), (b) % decrease in the bodyweight, and (c) 24 hour food intake (g) during the 30 days of leptin administration. Metabolic cage analysis was performed after 25 days of treatment (d) O2 consumption (ml/kg/hr), (e) CO2 production (ml/kg/hr), (f) X-axis ambulatory activity, (g) Respiratory exchange ratio (VCO2/VO2), (h) Heat generation (kcal/hr). Dexa scan analysis of (i) Lean body mass (g), (j) Fat % and (k) Total fat amount (g). C57BL6 mice were fed a HFD for a period of 25 weeks and then either treated with PBA (1 g/kg) or VEH for 16 days. (1) PERK phosphorylation in the hypothalamus extracts. (m) Leptin-stimulated Stat3^Tyr705 phosphorylation in the VEH and PBA-treated HFD-fed mice. (n) C57BL6 mice were fed a ND for a period of 25 weeks and then either treated with PBA (1 g/kg) or VEH for 16 days. Following the treatment period mice were starved for six hours and subsequently injected with leptin (IP, 1 mg/kg). Stat3^Tyr705 phoshorylation and total Stat levels were examined in the hypothalamus extracts. (n=6 in each group). Error bars are ±S.E.M., P values are determined by Student's t-test. (*p<0.05, **p<0.01, ***p<0.001)
Mice were fed a HFD (60%) for 25 weeks and following an acclimation PBA (1 gr/kg/day) and vehicle treatment was initiated. (a) Bodyweight, (b) % decrease in bodyweight and (c) daily food intake of VEH and PBA-treated HFD-fed obese mice were analyzed during the 16 days of treatment period. (n=5 in each group) Error bars are ±S.E.M., P values are determined by Student's t-test (*p<0.05, **p<0.01, ***p<0.001).
To investigate whether PBA treatment reduces the ER stress, we analyzed the PERK phosphorylation in the HFD-fed mice, which were either treated with VEH or PBA for 16 days. […] To investigate whether leptin-stimulated activation of LepRB signaling is increased in the hypothalamus of the PBA-treated HFD-fed obese mice, we intraperitoneally injected leptin (0.75 mg/kg) following a six-hour fast and analyzed the Stat3^Tyr705 phosphorylation in the hypothalamus extracts of VEH and PBA-treated mice. […] We also analyzed the leptin-stimulated Stat3^Tyr705 phosphorylation in the hypothalamus of the wt mice, which were either treated with vehicle or PBA for 16 days.

blood brain barrier = assay: Blood brain barrier permeability with Fluoro-gold in PBA-treated HFD-fed mice; details: HFD-fed wt male mice; PBA 12 days; Fluoro-gold IP 15 mg/kg
Method: Leptin resistance in obesity arises due to both impairment of leptin action in the hypothalamus and defects in the transport of leptin in the blood brain barrier^14,42. […] Three days after the injections, mice were anesthetized and perfused with saline and then 4% paraformaldehyde. After the fixation, brains were removed. Following the necessary further fixation and sectioning, Fluoro-gold staining was performed on the whole brain slices. […] Reactivity against the Fluoro-gold is not different between the vehicle and PBA-treated groups. Fluoro-gold-labeled neurons should be present in the areas like ventro-medial hypothalamus (VMH), dorso-medial hypothalamus (DMH) and lateral hypothalamic area (LHA), if the BBB permeability is perturbed. […] (data not shown)

[1] = tested on: HFD-fed obese C57BL/6 wt mice; assay: TUDCA and leptin in HFD-induced obesity model
Method: (a) Hypothalamic PERK phosphorylation (Thr980) after 21 days of vehicle or TUDCA (150 mg/kg/day) treatment. Following a five-day pretreatment with TUDCA (150 mg/kg/day) or vehicle, nine-ten week old ob/ob mice were treated either with leptin (1 mg/kg/day) or vehicle. (b) Body weight (g), (c) % decrease in body weight, (d) daily food intake of the ob/ob mice during 18 days of treatment period with the indicated regimens. (e) Blood glucose (mg/dl) levels at the 18th day of treatment. Metabolic cage studies were performed; (f) CO2 production (ml/kg/hr), (g) O2 consumption (ml/kg/hr), (h) Respiratory exchange ratio (VCO2/VO2), (i) X-axis ambulatory activity, (j) Heat generation (kcal/hr). Dexa scan analysis of (k) total fat amount (g), (l) fat % and (m) lean body mass (g). C57BL/6 male wt mice were kept on HFD feeding for 32 weeks and following a five day acclimation period were pretreated with TUDCA (150 mg/kg/day) for five days. At the end of pretreatment period intraperitoneal vehicle and leptin (1 mg/kg/day) treatments were started. (n) Body weight (g), (o) % decrease in bodyweight of the HFD-fed mice during the 16-day treatment. (n=6 for VEH, n=7 for Lep, n=7 for TUD, n=8 for TUD+Lep group). Error bars are ±S.E.M., P values are determined by Student's t-test. (*p<0.05, **p<0.01, ***p<0.001)
We next tested the efficacy of TUDCA as a leptin sensitizer in the HFD-induced obesity model. In this experiment we used 35 weeks old and C57BL/6 wt mice, which were kept on HFD-feeding for 32 weeks. We divided the mice into two groups for TUDCA and TUDCA-leptin co-treatment. Body weight of the mice in this cohort was between 35-52 g. We specifically chose the mice with the highest bodyweight for TUDCA and leptin co-treatment group to investigate whether leptin will become effective in these severely obese mice when administered along with the TUDCA. The initial body weight of the TUDCA group was 38.33±1.16 (g) and TUDCA+leptin group was 48.46±1.82 (g) (FIG. 5n). Following an initial five days acclimation period mice were treated with TUDCA (150 mg/kg/day) for […], and subsequently either vehicle or […] treatment was started. […] Following the acclimation, TUDCA pretreatment was started and following the five-day pretreatment, vehicle and leptin (1 mg/kg/day) administration were initiated. TUDCA alone led to a significant decrease in bodyweight by reducing the initial weight from 36.16±0.99 (g) to 32.61±0.65 during the 16 days of treatment period (FIG. 5n). This reduction corresponds to an 8.60% decrease in bodyweight (FIG. 5o). […] Indeed, in our experience TUDCA acts as a much more powerful chemical chaperone when compared to PBA, as doses of TUDCA necessary for reducing ER stress in cellular systems^25 or as a leptin-sensitizing agent is much lower than PBA. […]

[2] = HFD-fed mice, PBA 1 g/kg alone, 16 days, vs VEH
[3] = mice on HFD 32 weeks, TUDCA 150 mg/kg/day with vehicle or leptin 1 mg/kg/day, 16 days

In the case of `O=C(O)CCCc1ccccc1` [PBA, 4-phenyl butyric acid], the body weight (HFD-fed obese mice; [2]) was “did not reduce”, the food intake (HFD-fed obese mice; [2]) was “did not reduce” and the “PERK phosphorylation in the hypothalamus” value (HFD-fed obese mice; HFD-fed obese mice, PBA 1 g/kg, 16 days, vs VEH) was “marked decrease”. For the same molecule, the “leptin-stimulated Stat3 Tyr705 phosphorylation in hypothalamus” value (HFD-fed obese mice; HFD-fed obese mice, PBA 16 days, leptin 0.75 mg/kg IP after six-hour fast) was “marked up-regulation”, the “leptin-stimulated Stat3 Tyr705 phosphorylation in hypothalamus” value (HFD-fed obese mice; ND-fed lean wt mice, PBA 16 days vs VEH, leptin IP 1 mg/kg) was “did not cause a higher activation” and the “BBB permeability (Fluoro-gold-labeled neurons in VMH, DMH, LHA)” value (blood brain barrier) was “not increased”.

With `C[C@H](CCC(=O)NCCS(=O)(=O)O)[C@H]1CC[C@H]2[C@@H]3[C@@H](O)C[C@@H]4C[C@H](O)CC[C@]4(C)[C@H]3CC[C@]12C` [TUDCA, tauroursodeoxycholic acid] the “initial body weight of the group (before acclimation)” value ([1]; C57BL/6 wt mice on HFD 32 weeks) was 38.33 ± 1.16 g, the “body weight after treatment” value [1, 3] was 32.61 ± 0.65 g and the decrease in bodyweight [1, 3] was 8.60%. The “initial weight at start of treatment period” value ([1]; mice on HFD 32 weeks, after acclimation) was 36.16 ± 0.99 g.
